Source: US20220296566A1, “COMBINATION PRODUCT CONTAINING LIMONOID COMPOUND AND ALPHA-GLUCOSIDASE INHIBITOR” (ZHEJIANG YANGSHENGTANG INSTITUTE OF NATURAL MEDICATION CO., …, priority 2019, published 2022)

Assays:
STZ mice [1] = assay: Blood glucose in mouse type II diabetes model with pancreatic islet damage and obesity, STZ plus high-fat diet (Example 5); type: in vivo; settings: STZ + high-fat diet ICR mice; single agent 0.5 g/kg per day by gavage, two weeks; 1 h after last administration; mean ± SD
Source text: Effects of limonoid compound, acarbose or combination thereof on blood glucose in mouse type II diabetes model with pancreatic islet damage and obesity
In this example, a mouse model of type II diabetes with pancreatic islet damage and obesity was established by multiple modeling ICR mice with a small dose of streptozotocin (STZ), following with continuous high-fat diets (referring to literature: Zhang Jiyuan et al, Study on the effect of three plant extracts on improving glucose and lipid metabolism in type 2 diabetic mice, Food and Machinery, 2016, 32 (12): 142-147). […]
Experimental grouping: 15 male mice were randomly selected as the normal control group, and the remaining mice were subjected to a high-fat diet (high-fat diet formula: cholesterol 1%, egg yolk powder 10%, lard oil 10%, and basic feed 79%, for establishing an obesity mouse model) for consecutive 4 weeks and intraperitoneal injection of STZ at a dose of 35mg/kg for three consecutive days. After one week, the mice were subject to 24 hours of fasting and water deprivation, their fasting blood glucose was measured, and the mice with a blood glucose level of 15 to 25 mmol/L were selected and undifferentiatedly grouped and used in the experiment, continuously subjected to the high-fat diet, 15 mice in each group, and subjected to blood sampling and detection of indicators after 2 weeks of administration. […]

STZ mice [2] = assay: Blood glucose in STZ mouse pancreatic islet β-cell injury model (Example 1); type: in vivo; settings: STZ ICR mice; single agent 0.02 g/kg per day by gavage, two weeks; 1 h after last administration; mean ± SD
Source text: Effects of limonoid compound, acarbose or combination thereof on blood glucose in mouse pancreatic islet (3-cell injury model […]
Gavage doses: the gavage dose was 0.02 g/kg per day for the limonin group, the gavage dose was 0.02 g/kg per day for the isolimonic acid group, the gavage dose was 0.02 g/kg per day for the limonin glycoside group, the gavage dose was 0.02 g/kg per day for the isolimonic acid glycoside group, the gavage dose of acarbose was 0.02 g/kg per day for the acarbose group, limonin at a dose of 0.01 g/kg and acarbose at a dose of 0.01 g/kg were simultaneously gavaged per day for the limonin/acarbose combination group, isolimonic acid at a dose of 0.01 g/kg and acarbose at a dose of 0.01 g/kg were simultaneously gavaged per day for the isolimonic acid/acarbose combination group, limonin glycoside at a dose of 0.01 g/kg and acarbose at a dose of 0.01 g/kg were simultaneously gavaged per day for the limonin glycoside/acarbose combination group, isolimonic acid glycoside at a dose of 0.01 g/kg and acarbose at a dose of 0.01 g/kg were simultaneously gavaged per day for the isolimonic acid glycoside/acarbose combination group, the gavage volume was 10 mL/kg, and the normal group and the model group were administrated with 10 mL/kg of distilled water. […] The data were expressed as mean and standard deviation. […]

Question: For `C[C@H]1O[C@H](O[C@H]2[C@H](O)[C@@H](O)[C@@H](O[C@H]3[C@H](O)[C@@H](O)C(O)O[C@@H]3CO)O[C@@H]2CO)[C@H](O)[C@@H](O)[C@@H]1N[C@H]1C=C(CO)[C@@H](O)[C@H](O)[C@H]1O` (some centres unmarked) [Acarbose, acarbose], which Blood glucose value (STZ mice [1]) is on record?
Answer: 15.7 ± 3.0 mmol/L

Question: What about the Blood glucose value (STZ mice [2]) of the same molecule?
Answer: 22.1 ± 3.4 mmol/L
